Test results published in ChEMBL document CHEMBL1201862, “PubChem BioAssay data set” (2004).
Active and inactive are the calls of the source.

Assays:
[1] = molecular target: T1, Heat shock factor protein 1 (Mus musculus, UniProt P38532); assay: HSF1 potentiators in luciferase reporter cells, confirmation, cell-based, NIH3T3, luminescence, dose retest (AID 435004); type: functional;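 also: stress induced by proteasome inhibitor MG132 added 30 min after compound; luciferase reporter driven by HSF1 response element in NIH3T3 cells; actives raise luminescence as potentiators of the MG132 stress response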
T1 sequence (P38532 whole entry): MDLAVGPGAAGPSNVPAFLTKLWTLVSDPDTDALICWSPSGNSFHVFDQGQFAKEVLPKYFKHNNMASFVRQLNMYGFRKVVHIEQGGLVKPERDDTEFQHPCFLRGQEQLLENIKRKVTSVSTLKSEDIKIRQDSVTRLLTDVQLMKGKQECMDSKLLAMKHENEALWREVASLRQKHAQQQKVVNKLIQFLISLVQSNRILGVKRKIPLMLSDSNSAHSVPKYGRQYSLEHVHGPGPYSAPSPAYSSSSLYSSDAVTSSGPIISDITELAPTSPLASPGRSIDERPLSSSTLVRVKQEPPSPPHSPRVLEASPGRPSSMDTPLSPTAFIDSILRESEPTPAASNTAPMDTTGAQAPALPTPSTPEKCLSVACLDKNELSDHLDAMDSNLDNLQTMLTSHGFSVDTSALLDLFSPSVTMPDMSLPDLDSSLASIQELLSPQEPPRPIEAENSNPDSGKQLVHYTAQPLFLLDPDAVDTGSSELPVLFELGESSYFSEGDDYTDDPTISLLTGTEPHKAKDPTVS

[2] = inhibitors of PGC1a acetylation in cells, dose response, cell-based, cherry-picked samples (AID 720514); type: functional;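 also: potency may reflect raised or lowered acetylation signal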
[3] = tested on: HEK293; assay: inhibitors of LMP1-driven NF-kB reporter, dose response, cell-based, HEK293, luciferase, cherry-pick (AID 588343); type: functional; conditions: Homo sapiens
[4] = molecular target: Paired box protein Pax-8 (Homo sapiens, UniProt Q06710); assay: inhibitors of PAX8-driven TPO luciferase reporter, dose response, RMG-I cells, cherry-pick (AID 687027); type: functional, cell-based;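 also: luciferase reporter driven by Pax8 target thyroperoxidase promoter measured by SteadyGlo luminescence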
[5] = A549 cell cytotoxicity, dose response, cytotoxicity control, plate reader, cherry-pick, antagonist series (AID 743412); type: functional, cell-based
[6] = LGR2 antagonists, dose response, cell-based, HEK293, CRE-luciferase reporter, cherry pick, set 2 (AID 743343); type: functional;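 also: transfected cells were stimulated with diluted bursicon conditioned medium after compound addition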
[7] = MC4R antagonists, dose response, counter-screen for LGR2 antagonist project, cell-based, plate reader, cherry pick (AID 743444); type: functional;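 also: transfected HEK 293 cells stimulated with alpha-MSH peptide; potency of inhibitors of the alpha-MSH evoked signal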
[8] = HEK293 cell cytotoxicity, dose response, cytotoxicity control, plate reader, cherry-picked samples (AID 743446); type: functional, cell-based
[9] = molecular target: T2, Galanin receptor type 3 (Homo sapiens, UniProt O60755); assay: Fluorescence-based cell-based primary high throughput dose response assay to identify antagonists of the Galanin Receptor 3 (GalR3).; type: functional
T2 sequence (O60755 whole entry): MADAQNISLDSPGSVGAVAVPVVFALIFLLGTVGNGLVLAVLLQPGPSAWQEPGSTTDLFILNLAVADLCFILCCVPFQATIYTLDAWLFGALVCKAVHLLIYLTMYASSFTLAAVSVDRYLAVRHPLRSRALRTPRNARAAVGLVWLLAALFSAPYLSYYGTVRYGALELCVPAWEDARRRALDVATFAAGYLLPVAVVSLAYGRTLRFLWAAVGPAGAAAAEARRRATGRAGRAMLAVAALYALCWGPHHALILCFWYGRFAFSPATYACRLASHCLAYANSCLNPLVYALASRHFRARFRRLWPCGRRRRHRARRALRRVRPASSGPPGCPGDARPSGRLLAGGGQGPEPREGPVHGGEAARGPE

[10] = cells; type: functional, cell-based; conditions: HEK-CNG
[11] = molecular target: Major prion protein (Homo sapiens, UniProt P04156); type: functional, cell-based
[12] = HepG2 cell cytotoxicity, dose response, cytotoxicity control, plate reader, cherry-pick, antagonist series (AID 743416); type: functional, cell-based
[13] = HeLa 2N DNA content increase, dose response, cell-based, IC50 (AID 1117349); type: functional
[14] = HeLa 4N DNA content increase, dose response, cell-based, IC50 (AID 1117351); type: functional
[15] = molecular target: Luciferin 4-monooxygenase (Photinus pyralis, UniProt P08659); assay: firefly luciferase enzyme inhibitors, dose response, biochemical, luminescence (AID 1891)
[16] = Luminescence Cell-Based Dose Confirmation HTS to Identify Inhibitors of Platelet Dense Granule Release. [Related pubchem assays: 1663 (Primary HTS), 1678 (Summary of Project)]; type: functional

## Cc1cc2c(c(/C=C/C(=O)c3ccccc3)c1)OC1(C=C2)Oc2ccccc2C(=O)N1C (centres undefined)
[1]
  EC50: 3.56 µM (active)
[2]
  AC50: 2.26 µM (active)

## COc1ccc(-c2csc3ncnc(Sc4nnnn4C)c23)cc1
[3]
  AC50: 8.04 µM (active)
[4]
  AC50: 4.92 µM (active)
[5]
  AC50: 26.8 µM (active)
[6]
  AC50: 17.8 µM (active)
[7]
  AC50: 20.8 µM (active)
[8]
  AC50: 19.8 µM (active)

## O=C(NCCO)c1nsnc1NCCCl
[9]
  IC50: > 29.9 µM (inactive)
[10]
  EC50: > 29.9 µM (inactive)

## CC(Sc1ccc2ccccc2n1)C(=O)O (centres undefined)
[11]
  IC50: 1.88 µM (active)

## C[C@@H]1CN([C@H](C)CO)C(=O)CCCn2nncc2CO[C@H]1CN(C)C(=O)Nc1cccc2ccccc12
[12]
  AC50: > 52 µM (inactive)
[7]
  AC50: 34.8 µM (active)

## [O-][n+]1ccccc1SSc1cccc[n+]1[O-] [DIPYRITHIONE]
[13]
  IC50: > 10 µM (inactive)
[14]
  IC50: > 10 µM (inactive)

## COc1ccc(C2CC(=O)Nc3sc(=N)c4c(N)c(C#N)c(N)nc4c32)cc1OC (centres undefined)
[15]
  EC50: > 112 µM (not active)
[16]
  EC50: 706 nM (active)
[9]
  IC50: 2.28 µM (active)
[10]
  EC50: > 29.9 µM (inactive)
